Results on two compounds are retold here after patent US20240108557A1, “TOPICAL COMPOSITION USEFUL FOR THE DAILY CARE OF ACNE-PRONE SKIN” (Pierre Fabre Dermo-Cosmetique, priority 2021, published 2024).

The structures appear in SMILES notation.

The assay relates to Stratum corneum. The experiment in a line: AFM elastic modulus of Stratum corneum in skin explants (keratolytic effect). Also noted: species or system human. As to conditions: three topical applications, succinic acid 0.6 wt %, lactic acid 0.36 wt %, alone or combined (ratio 1.67). On the procedure: Keratolytic effect was assessed by observing the skin biomechanical properties modulation (skin stiffness modulation) induced by the tested agents using Atomic Force Microscopy (AFM) in skin explants. • 1 explant by donor and treatment • 3 distinct areas were measured by explant • A minimum of 12 measures by aera
Skin punchs of 1.2 cm were made from breast skin of women between 35 and 43 years old. […] First and second application during 1 hour, and the third-one during 3 hours. […] Mechanical properties of skin explants cryosections have been assessed, at Stratum corneum and epidermis areas, by AFM measurements.
AFM indentation experiments were carried out with a Resolve Bioscope (Bruker Nano Surface, Santa Barbara, CA) that was mounted on an inverted optical DM18 (Leica) and a top view Bruker. All measurements of skin stiffness were performed using cantilevers with conical tips. The cantilever moved with the relief of the skin surface. This deformation was quantified by the deflection of the laser beam who are correlated with biomechanical parameters of skin surface samples. Quantitative measure of elastic modulus was used to assess Stratum corneum or epidermis cell-cell junctions stiffness after treatment.

As to `O=C(O)CCC(=O)O` [succinic acid], the “inhibition of elastic modulus of Stratum corneum (stiffness reduction) compared to untreated control” value was “did not show any significant effect”.

As for `CC(O)C(=O)O` (centres unmarked) [lactic acid], the “inhibition of elastic modulus of Stratum corneum (stiffness reduction) compared to untreated control” value is “did not show any significant effect”.
